Where a name gives a salt, the structure may show the parent alone.
What was measured:
[1] = system: Pyricularia oryzae; type: in vivo; conditions: Pyricularia oryzae on rice cv. Sasanishiki; 0.02% active substance, spray
[2] = system: Septoria nodorum; experiment: Assay B-12: Effect against Septoria nodorum/wheat (Septoria leaf spot on wheat); type: in vivo; conditions: Septoria nodorum on wheat cv. Arina, 0.02% active substance, spray; for pest or weed control at 0.02 % strength: Parastagonospora nodorum, 264 h, read-out: B12 activity
Experimental: Assay B-12: Effect Against Septoria nodorum/Wheat (Septoria Leaf Spot on Wheat) 1 week old wheat plants cv. Arina are treated with a formulated test compound (0.02% active substance) in a spray chamber. One day after application wheat plants are inoculated by spraying a spore suspension (5×10^5 conidia/ml) on the test plants. After an incubation period of 1 day at 20° C. and 95% r.h. plants are kept for 10 days at 20° C. and 60% r.h. in a greenhouse. The disease incidence is assessed 11 days after inoculation.

[3] = system: Botrytis cinerea; experiment: Assay B-8: Effect against Botrytis cinerea/tomato (Botrytis on tomatoes); type: in vivo; conditions: Botrytis cinerea on tomato cv. Roter Gnom; 0.02% active substance, spray
Experimental: Assay B-8: Effect Against Botrytis cinerea/Tomato (Botrytis on Tomatoes) 4 week old tomato plants cv. Roter Gnom are treated with the formulated testcompound 0.02% active substance) in a spray chamber. Two days after application tomato plants are inoculated by spraying a spore suspension (1×10^5 conidia/ml) on the test plants. After an incubation period of 4 days at 20° C. and 95% r. h. in a greenhouse the disease incidence is assessed.

[4] = system: Pyrenophora teres (Helminthosporium); experiment: Assay B-10: Effect against Pyrenophora teres (Helminthosporium)/barley (net blotch on barley); type: in vivo; conditions: Pyrenophora teres on barley cv. Regina, 0.02% active substance, spray; for pest or weed control at 0.02 % strength: 96 h, read-out: B10 activity
Experimental: Assay B-10: Effect Against Pyrenophora teres (Helminthosporium)/Barley (Net Blotch on Barley) 1 week old barley plants cv. Regina are treated with a formulated testcompound (0.02% active substance) in a spray chamber. Two days after application barley plants are inoculated by spraying a spore suspension (3×10^4 conidia/ml) on the test plants. After an incubation period of 2 days at 20° C. and 95% r.h. plants are kept for 2 days at 20° C. and 60% r.h. in a greenhouse. The disease incidence is assessed 4 days after inoculation.

[5] = system: Venturia inaegualis; experiment: Assay B-5: Residual protective activity against Venturia inaegualis on apples (scab on apple); type: in vivo; conditions: Venturia inaegualis on apple seedlings cv. McIntosh; 0.02% active substance, spray
Experimental: Assay B-5: Residual Protective Activity Against Venturia inaegualis on Apples (Scab on Apple) 4 week old apple seedlings cv. McIntosh are treated with the formulated testcompound (0.02% active substance) in a spray chamber. One day after application apple plants are inoculated by spraying a spore suspension (4×10^5 conidia/ml) on the test plants. After an incubation period of 4 days at 21° C. and 95% r. h. the plants are placed for 4 days at 21° C. and 60% r. h. in a greenhouse. After another 4 day incubation period at 21° C. and 95% r. h. the disease incidence is assessed.

[6] = system: Botrytis cinerea; experiment: Assay B-7: Botrytis cinerea/grape (Botrytis on grapes); type: in vivo; conditions: Botrytis cinerea on grape seedlings cv. Gutedel; 0.02% active substance, spray
Experimental: Assay B-7: Botrytis cinerea/Grape (Botrytis on Grapes) 5 week old grape seedlings cv. Gutedel are treated with the formulated testcompound (0.02% active substance) in a spray chamber. Two days after application grape plants are inoculated by spraying a spore suspension (1×10^6 conidia/ml) on the test plants. After an incubation period of 4 days at 21° C. and 95% r. h. in a greenhouse the disease incidence is assessed.

SMILES	melting point [°C]	B9 activity [1]	B12 activity [2]	B8 activity [3]	B10 activity [4]	pest or weed control at 0.02 % strength [2] [%]	pest or weed control at 0.02 % strength [4] [%]	B5 activity [5]	B7 activity [6]
CC(C)Nc1cc(-c2ccnc(Nc3cccc(Cl)c3)n2)ccn1 (as salt: HCl) [Compound 82]	88 to 89								
Cl.Clc1cccc(Nc2nccc(-c3ccnc(NC4CCOC4)c3)n2)c1 (stereo not shown) [Compound 125]		+ (the activity observed in the corresponding test system is 70% or more)	+ (the activity observed in the corresponding test system is 70% or more)	+ (the activity observed in the corresponding test system is 70% or more)	+ (the activity observed in the corresponding test system is 70% or more)				
CNc1cc(-c2ccnc(Nc3cccc(Cl)c3)n2)ccn1 [Compound 64]	196 to 197			+ (the activity observed in the corresponding test system is 70% or more)		> 70	> 70		
C=CCNc1cc(-c2ccnc(Nc3cccc(Cl)c3)n2)ccn1 [Compound 69]			+ (the activity observed in the corresponding test system is 70% or more)	+ (the activity observed in the corresponding test system is 70% or more)	+ (the activity observed in the corresponding test system is 70% or more)			+ (the activity observed in the corresponding test system is 70% or more)	+ (the activity observed in the corresponding test system is 70% or more)
CC(CO)Nc1cc(-c2ccnc(Nc3cccc(Cl)c3)n2)ccn1 (stereo not shown) [Compound 39]		+ (the activity observed in the corresponding test system is 70% or more)	+ (the activity observed in the corresponding test system is 70% or more)	+ (the activity observed in the corresponding test system is 70% or more)	+ (the activity observed in the corresponding test system is 70% or more)				+ (the activity observed in the corresponding test system is 70% or more)
NNc1cc(-c2ccnc(Nc3cccc(Cl)c3)n2)ccn1 [Compound 22]	201 to 203						> 70		
CCOC(=O)Nc1cc(-c2ccnc(Nc3cccc(Cl)c3)n2)ccn1 [Compound 121]		+ (the activity observed in the corresponding test system is 70% or more)			+ (the activity observed in the corresponding test system is 70% or more)				
CC(C)(CO)Nc1cc(-c2ccnc(Nc3cccc(Cl)c3)n2)ccn1 [Compound 28]			+ (the activity observed in the corresponding test system is 70% or more)	+ (the activity observed in the corresponding test system is 70% or more)	+ (the activity observed in the corresponding test system is 70% or more)			+ (the activity observed in the corresponding test system is 70% or more)	+ (the activity observed in the corresponding test system is 70% or more)
CCC(C)C(CO)Nc1cc(-c2ccnc(Nc3cccc(Cl)c3)n2)ccn1 (stereo not shown) [Compound 41]					+ (the activity observed in the corresponding test system is 70% or more)			+ (the activity observed in the corresponding test system is 70% or more)	+ (the activity observed in the corresponding test system is 70% or more)
CC(COc1ncccn1)Nc1cc(-c2ccnc(Nc3cccc(Cl)c3)n2)ccn1 (stereo not shown) [Compound 95]			+ (the activity observed in the corresponding test system is 70% or more)		+ (the activity observed in the corresponding test system is 70% or more)			+ (the activity observed in the corresponding test system is 70% or more)	
OCCCNc1cc(-c2ccnc(Nc3cccc(Cl)c3)n2)ccn1 [Compound 46]		+ (the activity observed in the corresponding test system is 70% or more)	+ (the activity observed in the corresponding test system is 70% or more)		+ (the activity observed in the corresponding test system is 70% or more)				
CCOCCNc1cc(-c2ccnc(Nc3cccc(Cl)c3)n2)ccn1 [Compound 26]			+ (the activity observed in the corresponding test system is 70% or more)	+ (the activity observed in the corresponding test system is 70% or more)	+ (the activity observed in the corresponding test system is 70% or more)				+ (the activity observed in the corresponding test system is 70% or more)
OCC(CO)Nc1cc(-c2ccnc(Nc3cccc(Cl)c3)n2)ccn1 [Compound 35]				+ (the activity observed in the corresponding test system is 70% or more)	+ (the activity observed in the corresponding test system is 70% or more)			+ (the activity observed in the corresponding test system is 70% or more)	+ (the activity observed in the corresponding test system is 70% or more)
COCOCC(C)N(COC)c1cc(-c2ccnc(Nc3cccc(Cl)c3)n2)ccn1 (stereo not shown) [Compound 38]			+ (the activity observed in the corresponding test system is 70% or more)		+ (the activity observed in the corresponding test system is 70% or more)			+ (the activity observed in the corresponding test system is 70% or more)	
CC(C)(C)Nc1cc(-c2ccnc(Nc3cccc(Cl)c3)n2)ccn1 [Compound 70]	125 to 126			+ (the activity observed in the corresponding test system is 70% or more)		> 70	> 70		
Clc1cccc(Nc2nccc(-c3ccnc(NCC4CCCO4)c3)n2)c1 (stereo not shown) [Compound 75]			+ (the activity observed in the corresponding test system is 70% or more)	+ (the activity observed in the corresponding test system is 70% or more)	+ (the activity observed in the corresponding test system is 70% or more)			+ (the activity observed in the corresponding test system is 70% or more)	+ (the activity observed in the corresponding test system is 70% or more)
Clc1cccc(Nc2nccc(-c3ccnc(N4CCOCC4)c3)n2)c1 [Compound 17]	175 to 176								
Clc1cccc(Nc2nccc(-c3ccnc(N4CCNCC4)c3)n2)c1 [Compound 21]	103 to 104								
CCC(=O)Nc1cc(-c2ccnc(Nc3cccc(Cl)c3)n2)ccn1 [Compound 96]	215 to 216					> 70	> 70	+ (the activity observed in the corresponding test system is 70% or more)	
CC(CNc1cc(-c2ccnc(Nc3cccc(Cl)c3)n2)ccn1)Cn1ccnc1 (stereo not shown) [Compound 30]			+ (the activity observed in the corresponding test system is 70% or more)	+ (the activity observed in the corresponding test system is 70% or more)	+ (the activity observed in the corresponding test system is 70% or more)			+ (the activity observed in the corresponding test system is 70% or more)	
CCNc1cc(-c2ccnc(Nc3cccc(Cl)c3)n2)ccn1 [Compound 60]	201			+ (the activity observed in the corresponding test system is 70% or more)		> 70	> 70	+ (the activity observed in the corresponding test system is 70% or more)	+ (the activity observed in the corresponding test system is 70% or more)
